The values that follow come from patent US7833685B2, “Coloring compound and yellow toner containing the coloring compound” (Canon Kabushiki Kaisha, priority 2006, dated 2010).

The nature of data set [1]: Evaluation of coloring compound for its solubility in a styrene monomer. It counts as physicochemical. Particulars: in a styrene monomer at 25° C. As for the experimental part: <Evaluation of Coloring Compound for its Solubility>
A coloring compound was tested for its solubility in a styrene monomer at a temperature of 25° C. of dissolution.
The coloring compound was judged to have sufficient solubility when the percentage by which the coloring compound dissolved in the styrene monomer was 1 mass % or more.

Data set [2] can be described thus: Evaluation of coloring compound for lightfastness (sun tester irradiation, color difference ΔE). It counts as physicochemical. The following applies: ΔE after sun tester irradiation, 765 w/m^2, 50° C., 20 hours, on CLC color copy paper. The procedure:
<Evaluation of Coloring Compound for Lightfastness>
A coloring compound was dissolved in a mixed liquid prepared by mixing tetrahydrofuran and cyclohexanone at a volume ratio of 1:1, whereby a 0.04-mol/l coloring compound solution was prepared. The coloring compound solution was filtrated through a filter (pore diameter: 0.2 μm). The coloring compound solution after the filtration was applied to CLC color copy paper (manufactured by Canon Inc.) by a bar coat method (Bar No. 3), and the resultant test paper was dried with air for one whole day and night. Next, the test paper was tested by being irradiated with light from a sun tester (XF-180CPS, manufactured by Shimadzu Corporation) at an illuminance of 765 w/m^2 and a temperature of 50° C. for an irradiation time of 20 hours. The test paper was analyzed with a spectrophotometer (SPECTROLINO, manufactured by Gretag Macbeth) before and after the irradiation test. The chromaticities (L*, a*, b*) of the test paper in an L*a*b* colorimetric system were measured before and after the irradiation test. A color difference (ΔE) was calculated from the following equation.
The coloring compound was evaluated for its lightfastness as described below. • A: ΔE is less than 15. • B: ΔE is 15 or more and less than 30. • C: ΔE is 30 or more.
The coloring compound was judged to have good lightfastness when ΔE was less than 30.

Each structure is given as a SMILES string.

Take `CCCCC(CC)CN(CC(CC)CCCC)C(=O)c1ccccc1N=Nc1c(C)cc(=O)[nH]c1O` (centres unmarked) [D7]: the Solubility entry in data set [1] was “B (The percentage by which the coloring compound dissolves in the styrene monomer is 1 mass % or more and less than 10 mass %)”. In addition, the Lightfastness entry in data set [2] is “B (ΔE is 15 or more and less than 30)”.
As for `CCCCCCN(CCCCCC)C(=O)c1ccccc1N=Nc1c(O)[nH]c(=O)c(C#N)c1C` [D3], in data set [1], the Solubility result was “A (The percentage by which the coloring compound dissolves in the styrene monomer is 10 mass % or more)”. In addition, in data set [2], the Lightfastness entry was “A (ΔE is less than 15)”.
In the same order, the values of `CCCCn1c(O)c(N=Nc2ccccc2[N+](=O)[O-])c(C)c(C#N)c1=O` [E8, reference compound] are “C (The percentage by which the coloring compound dissolves in the styrene monomer is less than 1 mass %)” and “C (ΔE is 30 or more)”.
As for `CCCCCCCCCCCCN(CCCCCCCCCCCC)C(=O)c1cc(Cl)ccc1N=Nc1c(O)[nH]c(=O)c(C#N)c1C` [D5], the Solubility entry in data set [1] is “A (The percentage by which the coloring compound dissolves in the styrene monomer is 10 mass % or more)”. Further, the Lightfastness entry in data set [2] is “B (ΔE is 15 or more and less than 30)”.
On to `CCCCn1c(O)c(N=Nc2ccc(Cl)cc2)c(C)c(C#N)c1=O` [E2, reference compound], for which the Solubility entry in data set [1] was “B (The percentage by which the coloring compound dissolves in the styrene monomer is 1 mass % or more and less than 10 mass %)”. Moreover, the Lightfastness entry in data set [2] is on record as “C (ΔE is 30 or more)”.
For the compound `CCCCC(CC)CN(CC(CC)CCCC)C(=O)c1ccccc1N=Nc1c(O)[nH]c(=O)c(C(N)=O)c1C` (centres unmarked) [D14], the Solubility entry in data set [1] is “B (The percentage by which the coloring compound dissolves in the styrene monomer is 1 mass % or more and less than 10 mass %)”. Moreover, in data set [2], the Lightfastness result is “B (ΔE is 15 or more and less than 30)”.
Turning to `Cc1c(N=Nc2ccccc2C(=O)N(c2ccccc2)c2ccccc2)c(O)[nH]c(=O)c1C#N` [D12], in data set [1], the Solubility entry is “B (The percentage by which the coloring compound dissolves in the styrene monomer is 1 mass % or more and less than 10 mass %)”. Further, the Lightfastness result in data set [2] is “A (ΔE is less than 15)”.
For the compound `CCCCc1c(N=Nc2ccccc2C(=O)N2CCC(CCC)CC2)c(O)[nH]c(=O)c1C#N` [D16], the Solubility entry in data set [1] was “B (The percentage by which the coloring compound dissolves in the styrene monomer is 1 mass % or more and less than 10 mass %)”. Also, the Lightfastness entry in data set [2] is listed as “A (ΔE is less than 15)”.
For the compound `CCCCc1c(N=Nc2ccc(C)cc2C(=O)OCC(CC)CCCC)c(O)[nH]c(=O)c1C#N` (centres unmarked) [D6], the Solubility entry in data set [1] was “B (The percentage by which the coloring compound dissolves in the styrene monomer is 1 mass % or more and less than 10 mass %)”. In data set [2], the Lightfastness result is “B (ΔE is 15 or more and less than 30)”.
Consider `CCCCC(CC)CNS(=O)(=O)c1ccc(N=Nc2c(C)c(C#N)c(=O)n(CCCC)c2O)cc1` (centres unmarked) [E3, reference compound], for which the Solubility result in data set [1] is “A (The percentage by which the coloring compound dissolves in the styrene monomer is 10 mass % or more)”. In addition, the Lightfastness entry in data set [2] is “C (ΔE is 30 or more)”.
Consider `CCCCn1c(O)c(N=Nc2ccc(C(=O)OC)cc2)c(C)c(C#N)c1=O` [E5, reference compound], for which the Solubility result in data set [1] is reported as “C (The percentage by which the coloring compound dissolves in the styrene monomer is less than 1 mass %)”. Further, the Lightfastness result in data set [2] is listed as “C (ΔE is 30 or more)”.
In the same order, the values of `CCCCC(CC)CN(CC(CC)CCCC)C(=O)c1ccc(N=Nc2c(C)c(C#N)c(=O)n(CC)c2O)cc1` (centres unmarked) [E6, reference compound] are “A (The percentage by which the coloring compound dissolves in the styrene monomer is 10 mass % or more)” and “C (ΔE is 30 or more)”.
As to `CCCCC(CC)CN(CC(CC)CCCC)C(=O)c1ccccc1N=Nc1c(C)c(C#N)c(=O)n(CC)c1O` (centres unmarked) [E11, reference compound], in data set [1], the Solubility result is listed as “A (The percentage by which the coloring compound dissolves in the styrene monomer is 10 mass % or more)”. In addition, in data set [2], the Lightfastness entry was “C (ΔE is 30 or more)”.
In the same order, the values of `CCCCCCCCCCCCN(CCCCCCCCCCCC)C(=O)c1ccccc1N=Nc1c(O)[nH]c(=O)c(C#N)c1C` [D4] are “A (The percentage by which the coloring compound dissolves in the styrene monomer is 10 mass % or more)” and “A (ΔE is less than 15)”.
In the same order, the values of `CCCCC(CC)CN(CC(CC)CCCC)C(=O)c1ccc(N=Nc2c(O)[nH]c(=O)c(C#N)c2C)cc1` (centres unmarked) [E10, reference compound] are “A (The percentage by which the coloring compound dissolves in the styrene monomer is 10 mass % or more)” and “C (ΔE is 30 or more)”.
`CCCCc1c(N=Nc2ccccc2C(=O)NCC(CC)CCCC)c(O)[nH]c(=O)c1C#N` (centres unmarked) [D15]: the Solubility entry in data set [1] was “B (The percentage by which the coloring compound dissolves in the styrene monomer is 1 mass % or more and less than 10 mass %)”. Moreover, in data set [2], the Lightfastness entry is “A (ΔE is less than 15)”.
For the compound `Cc1c(N=Nc2ccc(N(C)C)cc2)c(O)n(CCCl)c(=O)c1C#N` [E4, reference compound], the Solubility entry in data set [1] is “B (The percentage by which the coloring compound dissolves in the styrene monomer is 1 mass % or more and less than 10 mass %)”. Also, the Lightfastness result in data set [2] is “C (ΔE is 30 or more)”.
On to `CCCCc1c(N=Nc2ccc(OC)cc2C(=O)OC(c2ccccc2)c2ccccc2)c(O)[nH]c(=O)c1C#N` [D10], for which the Solubility entry in data set [1] is “B (The percentage by which the coloring compound dissolves in the styrene monomer is 1 mass % or more and less than 10 mass %)”. In addition, in data set [2], the Lightfastness entry is “B (ΔE is 15 or more and less than 30)”.
In the case of `CCCCC(CC)CN(CC(CC)CCCC)C(=O)c1cccc(N=Nc2c(O)[nH]c(=O)c(C#N)c2C)c1` (centres unmarked) [E9, reference compound], in data set [1], the Solubility entry is “C (The percentage by which the coloring compound dissolves in the styrene monomer is less than 1 mass %)”. Moreover, the Lightfastness entry in data set [2] was “A (ΔE is less than 15)”.
In the same order, the values of `CCCCC(CC)CN(CC(CC)CCCC)C(=O)c1ccccc1N=Nc1c(O)[nH]c(=O)c(C#N)c1-c1ccccc1` (centres unmarked) [D2] are “A (The percentage by which the coloring compound dissolves in the styrene monomer is 10 mass % or more)” and “A (ΔE is less than 15)”.
On to `Cc1c(N=Nc2ccccc2C(=O)N(Cc2ccccc2)Cc2ccccc2)c(O)[nH]c(=O)c1C#N` [D11], for which, in data set [1], the Solubility result is “B (The percentage by which the coloring compound dissolves in the styrene monomer is 1 mass % or more and less than 10 mass %)”. Moreover, the Lightfastness result in data set [2] was “A (ΔE is less than 15)”.
`CCCCc1ccc(N=Nc2c(O)[nH]c(=O)c(C#N)c2C)cc1` [E1, reference compound]: the Solubility entry in data set [1] is “B (The percentage by which the coloring compound dissolves in the styrene monomer is 1 mass % or more and less than 10 mass %)”. Also, the Lightfastness entry in data set [2] is “C (ΔE is 30 or more)”.
As for `CCCCC(CC)CN(CC(CC)CCCC)C(=O)c1ccccc1/N=N/c1c(O)[nH]c(=O)c(C#N)c1C` (centres unmarked) [D1], the Solubility result in data set [1] was “A (The percentage by which the coloring compound dissolves in the styrene monomer is 10 mass % or more)”. The Lightfastness entry in data set [2] is reported as “A (ΔE is less than 15)”.
In the case of `CCCCCCCCc1ccc(OC(=O)c2ccccc2N=Nc2c(O)[nH]c(=O)c(C#N)c2C)cc1` [D8], the Solubility entry in data set [1] is “B (The percentage by which the coloring compound dissolves in the styrene monomer is 1 mass % or more and less than 10 mass %)”. In data set [2], the Lightfastness entry is reported as “A (ΔE is less than 15)”.
With `CCCCn1c(O)c(N=Nc2cccc(C)c2)c(C)c(C#N)c1=O` [E7, reference compound], the Solubility entry in data set [1] was “B (The percentage by which the coloring compound dissolves in the styrene monomer is 1 mass % or more and less than 10 mass %)”. The Lightfastness entry in data set [2] is reported as “C (ΔE is 30 or more)”.
